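Where inhibition never reached the appropriate level, the endpoint shown equals the highest concentration tested. Otherwise, values were interpolated linearly from a five-concentration, 48-hour dose response in 96-well plates. GI50 marks 50% less growth. TGI is the concentration that stops growth completely.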
Tests used:
Assay in all cases: NCI anticancer screen, dose series, 48 h
KM12 colon = test system: KM12 colon
SF-295 CNS = test system: SF-295 CNS
MDA-MB-231 breast = test system: MDA-MB-231 breast
HCT-116 colon = test system: HCT-116 colon
MDA-MB-435 = test system: MDA-MB-435
SF-268 CNS = test system: SF-268 CNS
NCI-H460 lung = test system: NCI-H460 lung
SK-MEL-28 melanoma = test system: SK-MEL-28 melanoma
SNB-19 CNS = test system: SNB-19 CNS
OVCAR-8 ovarian = test system: OVCAR-8 ovarian
M14 melanoma = test system: M14 melanoma
MDA-MB-468 breast = test system: MDA-MB-468 breast
UACC-62 melanoma = test system: UACC-62 melanoma
HOP-62 NSCLC = test system: HOP-62 NSCLC
UACC-257 melanoma = test system: UACC-257 melanoma
OVCAR-3 ovarian = test system: OVCAR-3 ovarian
EKVX NSCLC = test system: EKVX NSCLC
HCC-2998 colon = test system: HCC-2998 colon
SN12C renal = test system: SN12C renal
PC-3 prostate = test system: PC-3 prostate
UO-31 renal = test system: UO-31 renal
HL-60(TB) leukemia = test system: HL-60(TB) leukemia
COLO 205 colon = test system: COLO 205 colon
LOX IMVI melanoma = test system: LOX IMVI melanoma
SK-MEL-2 melanoma = test system: SK-MEL-2 melanoma
A549 NSCLC = test system: A549 NSCLC
786-0 renal = test system: 786-0 renal
SF-539 CNS = test system: SF-539 CNS
K-562 leukemia = test system: K-562 leukemia
T-47D breast = test system: T-47D breast
NCI-H522 lung = test system: NCI-H522 lung
U251 CNS = test system: U251 CNS
SK-OV-3 ovarian = test system: SK-OV-3 ovarian
BT-549 breast = test system: BT-549 breast
OVCAR-5 ovarian = test system: OVCAR-5 ovarian
MALME-3M melanoma = test system: MALME-3M melanoma
TK-10 renal = test system: TK-10 renal
SR leukemia = test system: SR leukemia
SK-MEL-5 melanoma = test system: SK-MEL-5 melanoma
CCRF-CEM leukemia = test system: CCRF-CEM leukemia
ACHN renal = test system: ACHN renal
HT29 colon = test system: HT29 colon
MCF7 breast = test system: MCF7 breast
RXF 393 renal = test system: RXF 393 renal
NCI-H226 lung = test system: NCI-H226 lung
OVCAR-4 ovarian = test system: OVCAR-4 ovarian
NCI-H23 lung = test system: NCI-H23 lung
HCT-15 colon = test system: HCT-15 colon
SNB-75 CNS = test system: SNB-75 CNS
MOLT-4 leukemia = test system: MOLT-4 leukemia
IGROV1 ovarian = test system: IGROV1 ovarian
A498 renal = test system: A498 renal
SW-620 colon = test system: SW-620 colon
RPMI-8226 leukemia = test system: RPMI-8226 leukemia
DU-145 prostate = test system: DU-145 prostate
CAKI-1 renal = test system: CAKI-1 renal
HOP-92 NSCLC = test system: HOP-92 NSCLC
HS 578T breast = test system: HS 578T breast

`O=C(c1ccc(O)cc1)C1[C@H](c2ccccc2Br)[C@@H](c2ccccc2)NC12C(=O)Nc1ccc(Cl)cc12` (stereo partly specified) showed a GI50 (KM12 colon) of 2.91 µM, a TGI (KM12 colon) of 11.1 µM and a GI50 (SF-295 CNS) of 4.98 µM. For the same compound, the TGI (SF-295 CNS) was 12.5 µM, the GI50 (MDA-MB-231 breast) was 4.68 µM and the TGI (MDA-MB-231 breast) was 11.8 µM. It also gave a GI50 (HCT-116 colon) of 4.12 µM, a TGI (HCT-116 colon) of 11.4 µM and a GI50 (MDA-MB-435) of 4.78 µM. It also gave a TGI (MDA-MB-435) of 12.9 µM, a GI50 (SF-268 CNS) of 3.99 µM and a TGI (SF-268 CNS) of 13.4 µM. For the same compound, the GI50 (NCI-H460 lung) was 4.72 µM, the TGI (NCI-H460 lung) was 12.7 µM and the GI50 (SK-MEL-28 melanoma) was 7.51 µM. It also gave a TGI (SK-MEL-28 melanoma) of 14.7 µM, a GI50 (SNB-19 CNS) of 5.97 µM and a TGI (SNB-19 CNS) of 12.6 µM. It also gave a GI50 (OVCAR-8 ovarian) of 6.72 µM, a TGI (OVCAR-8 ovarian) of 14.6 µM and a GI50 (M14 melanoma) of 4.77 µM. It also gave a TGI (M14 melanoma) of 12.4 µM, a GI50 (MDA-MB-468 breast) of 1.61 µM and a TGI (MDA-MB-468 breast) of 6.96 µM. For the same compound, the GI50 (UACC-62 melanoma) was 5.71 µM, the TGI (UACC-62 melanoma) was 12.2 µM and the GI50 (HOP-62 NSCLC) was 7.08 µM. The TGI (HOP-62 NSCLC) was 14.9 µM, the GI50 (UACC-257 melanoma) was 6.51 µM and the TGI (UACC-257 melanoma) was 13.5 µM. For the same compound, the GI50 (OVCAR-3 ovarian) was 2.76 µM, the TGI (OVCAR-3 ovarian) was 9.34 µM and the GI50 (EKVX NSCLC) was 6.65 µM. It also gave a TGI (EKVX NSCLC) of 15.4 µM, a GI50 (HCC-2998 colon) of 2.42 µM and a TGI (HCC-2998 colon) of 9.01 µM. It also gave a GI50 (SN12C renal) of 1.7 µM, a TGI (SN12C renal) of 6.32 µM and a GI50 (PC-3 prostate) of 2.8 µM. It also gave a TGI (PC-3 prostate) of 11.3 µM, a GI50 (UO-31 renal) of 3.26 µM and a TGI (UO-31 renal) of 10.9 µM. It also gave a GI50 (HL-60(TB) leukemia) of 5.86 µM, a TGI (HL-60(TB) leukemia) of 20.3 µM and a GI50 (COLO 205 colon) of 7.35 µM. For the same compound, the TGI (COLO 205 colon) was 15.7 µM, the GI50 (LOX IMVI melanoma) was 5.53 µM and the TGI (LOX IMVI melanoma) was 13.1 µM. The GI50 (SK-MEL-2 melanoma) was 6.49 µM, the TGI (SK-MEL-2 melanoma) was 13.8 µM and the GI50 (A549 NSCLC) was 3.43 µM. It also gave a TGI (A549 NSCLC) of 11.2 µM, a GI50 (786-0 renal) of 6.57 µM and a TGI (786-0 renal) of 13.7 µM. For the same compound, the GI50 (SF-539 CNS) was 6.11 µM, the TGI (SF-539 CNS) was 12.8 µM and the GI50 (K-562 leukemia) was 3.75 µM. It also gave a TGI (K-562 leukemia) of 17.9 µM, a GI50 (T-47D breast) of 5.51 µM and a TGI (T-47D breast) of 14.9 µM. For the same compound, the GI50 (NCI-H522 lung) was 2.23 µM, the TGI (NCI-H522 lung) was 8.45 µM and the GI50 (U251 CNS) was 3.46 µM. It also gave a TGI (U251 CNS) of 10.8 µM, a GI50 (SK-OV-3 ovarian) of 7.69 µM and a TGI (SK-OV-3 ovarian) of 15.4 µM. It also gave a GI50 (BT-549 breast) of 2.19 µM, a TGI (BT-549 breast) of 9.37 µM and a GI50 (OVCAR-5 ovarian) of 6.25 µM. It also gave a TGI (OVCAR-5 ovarian) of 13 µM, a GI50 (MALME-3M melanoma) of 7.89 µM and a TGI (MALME-3M melanoma) of 15.3 µM. It also gave a GI50 (TK-10 renal) of 7.76 µM, a TGI (TK-10 renal) of 16 µM and a GI50 (SR leukemia) of 2.01 µM. For the same compound, the TGI (SR leukemia) was 9.34 µM, the GI50 (SK-MEL-5 melanoma) was 8.68 µM and the TGI (SK-MEL-5 melanoma) was 16.8 µM. It also gave a GI50 (CCRF-CEM leukemia) of 3.49 µM, a TGI (CCRF-CEM leukemia) of 16.5 µM and a GI50 (ACHN renal) of 5.39 µM. It also gave a TGI (ACHN renal) of 11.8 µM, a GI50 (HT29 colon) of 7.36 µM and a TGI (HT29 colon) of 17.9 µM. It also gave a GI50 (MCF7 breast) of 3.17 µM, a TGI (MCF7 breast) of 13.7 µM and a GI50 (RXF 393 renal) of 2.86 µM. It also gave a TGI (RXF 393 renal) of 10.5 µM, a GI50 (NCI-H226 lung) of 1.57 µM and a TGI (NCI-H226 lung) of 6.22 µM. It also gave a GI50 (OVCAR-4 ovarian) of 4.69 µM, a TGI (OVCAR-4 ovarian) of 13.7 µM and a GI50 (NCI-H23 lung) of 6.65 µM. The TGI (NCI-H23 lung) was 14.4 µM, the GI50 (HCT-15 colon) was 6.63 µM and the TGI (HCT-15 colon) was 16.1 µM. For the same compound, the GI50 (SNB-75 CNS) was 1.44 µM, the TGI (SNB-75 CNS) was 8.12 µM and the GI50 (MOLT-4 leukemia) was 2.2 µM. It also gave a TGI (MOLT-4 leukemia) of 11.4 µM, a GI50 (IGROV1 ovarian) of 2.3 µM and a TGI (IGROV1 ovarian) of 9.11 µM. The GI50 (A498 renal) was 6.57 µM, the TGI (A498 renal) was 13.9 µM and the GI50 (SW-620 colon) was 6.73 µM. For the same compound, the TGI (SW-620 colon) was 14.8 µM, the GI50 (RPMI-8226 leukemia) was 3.29 µM and the TGI (RPMI-8226 leukemia) was 43.8 µM. The GI50 (DU-145 prostate) was 8.01 µM, the TGI (DU-145 prostate) was 16.5 µM and the GI50 (CAKI-1 renal) was 2 µM. The TGI (CAKI-1 renal) was 8.85 µM, the GI50 (HOP-92 NSCLC) was 3.03 µM and the TGI (HOP-92 NSCLC) was 11.6 µM. For the same compound, the GI50 (HS 578T breast) was 6.2 µM and the TGI (HS 578T breast) was 22.6 µM.
